Assay results taken from patent US12295997B2, “Prostate neoantigens and their uses” (Janssen Biotech, Inc., priority 2020, dated 2025).

System: CD8+ and CD4+ T cells (autologous CD3+ Pan-T cells isolated from human normal PBMCs)
Assay: Exogenous autologous normal donor restimulation assay (15-mer overlapping peptide pools on CD1c+ dendritic cells, TNFα/IFNγ flow cytometry)
Assay type: cell-based
Conditions: 15-mer overlapping peptide pool; for Max. Fold Change over background CD4+ TNFαINFγ double positive DP / Max. Fold Change over background CD8+ TNFαINFγ double positive DP / Max. Frequency of CD4+ TNFαINFγ DP / Max. Frequency of CD8+ TNFαINFγ DP: Table 28, additional neoantigens, highest across normal donors; for Maximum Fold Change Over Background CD4+ cells / Maximum Fold Change Over Background CD8+ cells / Maximum Frequency of TNFα/IFNγ Double Positive CD4+ T cells / Maximum Frequency of TNFα/IFNγ Double Positive CD8+ T cells: Table 25; for Maximum Fold Change Over Background CD4+ cells: TNFα+IFNγ+ CD4+ T cells; for Maximum Fold Change Over Background CD4+ cells / Maximum Fold Change Over Background CD8+ cells: highest fold change over negative control across normal donors; for Maximum Fold Change Over Background CD8+ cells: TNFα+IFNγ+ CD8+ T cells; for Maximum Frequency of TNFα/IFNγ Double Positive CD4+ T cells / Maximum Frequency of TNFα/IFNγ Double Positive CD8+ T cells: highest frequency across normal donors
Procedure: CD1c+ Dendritic Cells (DC) isolated from human normal PBMCs were thawed using media (IMDM (Gibco) supplemented with glutamine, HEPES, 5% human serum (Sigma), and 1× Pen-Strep). DC cells were resuspended in media supplemented with IL-4 (Peprotech, 80 ng/mL) and GM-CSF (Gibco, 80 ng/mL), plated in 6 well microplates, and rested overnight at 37° C. (5% CO2). The following day, DC cells were counted and plated in a 96 well round bottom microplate at a concentration of 30,000 viable cells per well. Lyophilized peptides (15-mer overlapping peptides) were solubilized in 100% DMSO and pooled by neoantigen to between 5 mg/mL and 20 mg/mL. Neoantigen peptides pools were added to DCs for a final concentration of […] and rested for 2 hours at 37° C. (5% CO2). CEF Peptide Pool “Plus” (Cellular Technologies, Ltd.) was utilized as a positive control and DMSO at the same final concentration as the experimental peptides was utilized as a negative control. After 2 hours, DC cells were irradiated with 50 gray of ionizing radiation. Autologous CD3+ Pan-T cells isolated from human normal PBMCs were thawed using media. Following irradiation, autologous Pan-T cells were added to the irradiated DCs at 300,000 viable cells per well. Human IL-15 (Peprotech) was added to all wells at final concentration of 10 ng/mL.
Plates were incubated at 37° C. (5% CO2) for a total of 12 days. Media was refreshed every 2-3 days with IL-15 (10 ng/mL final concentration) and IL-2 (R&D systems, 10 IU/mL final concentration). On day 11 cells were re-stimulated with identical experimental peptide pools or controls, at same concentration as peptide stimulation on Day 1. Protein Inhibitor Cocktail (eBioscience) was added to every well and plate was incubated overnight at 37° C. (5% CO2).
On day 12, cells were stained for intracellular flow cytometry analysis. The cells were washed with PBS and stained with Live/Dead Fixable Aqua Dead Cell stain (Thermo-Fisher). Following the live/dead stain, cells were blocked using Biotin-Free Fc Receptor Blocker (Accurate Chemical & Scientific Corp). Extracellular cellular flow panel (1 μL/antibody per well in 50 μL) consisted of CD3 PerCP-Cy5.5 (Biolegend), CD4 BV421 (Biolegend), and CD8 APC-Cy7 (Biolegend). After extracellular staining, cells were fixed using Foxp3/fTranscription Factor Staining Buffer Set (eBioscience) and stained for intracellular proteins (1:50 dilution) using TNFα FITC (R&D Systems) and IFNγ BV785 (Biolegend). Cells were washed and resuspended in stain buffer and analyzed using a BD Celesta flow cytometer.
Flow cytometry cell staining analysis was completed using FlowJo v10. Cells were gated on live, singlet, CD3+ cells. The CD8+ and CD4+ T cells were analyzed for TNFα/IFNγ expression and the frequency of double positive TNFα/IFNγ CD8+ and the frequency of double positive TNFα/IFNγ CD4+ T cells were recorded. Responses were assessed to be positive when the frequency of double positive TNFα/IFNγ CD8+ or TNFα/IFNγ CD4+ T cells due to stimulation with an experimental peptide pool was increased greater than or equal to 3-fold over the DMSO only negative control for that donor and at least 0.01%.
(§1) Overlapping 15-mer peptides were designed to span each neoantigen incorporated into NeoGAd20 and NeoMVA to assess their ability to activate T cells using the exogenous autologous normal donor restimulation assay described in Example 1 as pools using TNFα and IFNγ production by CD8^+ and CD4^+ T cells as a readout.
as §1, with “Immunogenicity of various additional identified neoantigens was assessed. Overlapping” for “Overlapping”, “similarly to what was done in Example 11” for “incorporated into NeoGAd20 and NeoMVA”

Substance	Max. Fold Change over background CD4+ TNFαINFγ double positive DP	Max. Fold Change over background CD8+ TNFαINFγ double positive DP	Max. Frequency of CD4+ TNFαINFγ DP	Max. Frequency of CD8+ TNFαINFγ DP	Maximum Fold Change Over Background CD4+ cells	Maximum Fold Change Over Background CD8+ cells	Maximum Frequency of TNFα/IFNγ Double Positive CD4+ T cells	Maximum Frequency of TNFα/IFNγ Double Positive CD8+ T cells
PEPRRLSPGEPRGRPRKGWGIWGLCGARVGPKAWR (listed as Homo sapiens) [AS42, SLC39A4 alternative splicing]	24.58	4.65	0.59	0.69				
KEQILAVASLVSSQSIHPSWGQSPLSRI (listed as Homo sapiens) [FUS9, AP5S1->MAVS gene fusion]	203.97	1.82	0.77	0.07				
FVQGKDWGVKKFIRRDF (listed as Homo sapiens) [Neoantigen M12, SPOP F133V]					8.94	6.67	0.05	0.12
QQLRIFCAAMASNEDFS (listed as Homo sapiens) [FUS11, MBTPS2->YY2 gene fusion]	28.57	2.63	0.16	0.1				
GEVELSEGGEGQRHLAFPWACSGPGWRGVCCAAVEPA (listed as Homo sapiens) [AS32, TONSL alternative splicing]	2.04	3.81	0.08	0.12				
LTFLDFIQVTLRVMSGSQMENGSSYFFKPFSWGLGVGLSAWLCVMLT (listed as Homo sapiens) [AS1, ABCC4 alternative splicing]	3.57	8.15	0.02	0.11				
KMHFSLKEHPPPPCPP (listed as Homo sapiens) [FUS19, GTF2F1->PSPN gene fusion]					3.15	1.88	0.013	0.030
CGASACDVSLIAMDSA (listed as Homo sapiens) [FUS1, SLC45A3->ELK4 gene fusion]					8.33	1.94	0.100	0.031
MS2 (TDIVKQSV; listed as Homo sapiens)	15.12	36.92	0.1	0.48				
MS5 (EFSPETCAFRLS; listed as Homo sapiens)	126.05	32.89	0.2	1.95				
GLNLNTDRPGGYSYSIWWKNNAKNR (listed as Homo sapiens) [AS17, MPHOSPH9 alternative splicing]	3.18	2.38	0.01	0.07				
MS9 (SALSGNSWV; listed as Homo sapiens)	455.63	1.38	1.72	0.1				
KENDVREVCDVYLQMQIFFHFKFRSYFH (listed as Homo sapiens) [AS10, CHRNA5 alternative splicing]	3.97	4.33	0.23	0.08				
FVQGKDWGLKKFIRRDF (listed as Homo sapiens) [Neoantigen M10, SPOP F133L]					14.14	1.89	0.1	0.09
DYWAQKEKISIPRTHLC (listed as Homo sapiens) [AS6, ACSM1 alternative splicing]					31.67	6.50	0.380	0.078
QWQHYHRSGEAAGTPLWRPTRN (listed as Homo sapiens) [AS19, NWD1 alternative splicing]					2.59	5.87	0.1	0.63
AGAGTISEGSVLHGQRLECDARRFFGCGTTILAEWEHH (listed as Homo sapiens) [AS59, ACSL3 alternative splicing]	59.58	4.22	0.3	0.08				
FKKFDGPCGERGGGRTARALWARGDSVLTPALDPQTPVRAPSLTRAAAAV (listed as Homo sapiens) [AS47, AGRN alternative splicing]					2.58	4.80	0.031	0.240
VAMMVPDRQVHYDFGL (listed as Homo sapiens) [AS3, DNAH8 alternative splicing]					3.86	7.92	0.054	0.095
ENASLVFTGSNSPIPACELSSHPAHGISPWIPSPGNEHFHGIKKQVKAIKVE (listed as Homo sapiens) [AS48, SYT17 alternative splicing]	13.45	9.21	0.13	0.29				
ANLKGTLQVRSGQAVSPR (listed as Homo sapiens) [AS21, RECQL4 alternative splicing]	1.7	3.81	0.07	0.12				
EAFQRAAGEGGPGRGGARRGARVLQSPFCRAGAGEWLGHQSLR (listed as Homo sapiens) [AS41, RHPN1 alternative splicing]					2.20	190.60	0.022	9.530
P27 (LHPQRETFTPRWSGANYWKLAFPVGAEGTFPAAATQRGVVRPA; listed as Homo sapiens) [Neoantigen P27]	45.38	7.87	0.05	0.59				
